Target: T1, endothelial lipase (EL) (Homo sapiens, UniProt Q9Y5X9)
T1 construct: HT-1080 cells, which were transformed by RAGE technology (Athersys) to overexpress endogenous EL; endogenous in cells; conditioned medium used as the enzyme source
T1 sequence (Q9Y5X9 21-500): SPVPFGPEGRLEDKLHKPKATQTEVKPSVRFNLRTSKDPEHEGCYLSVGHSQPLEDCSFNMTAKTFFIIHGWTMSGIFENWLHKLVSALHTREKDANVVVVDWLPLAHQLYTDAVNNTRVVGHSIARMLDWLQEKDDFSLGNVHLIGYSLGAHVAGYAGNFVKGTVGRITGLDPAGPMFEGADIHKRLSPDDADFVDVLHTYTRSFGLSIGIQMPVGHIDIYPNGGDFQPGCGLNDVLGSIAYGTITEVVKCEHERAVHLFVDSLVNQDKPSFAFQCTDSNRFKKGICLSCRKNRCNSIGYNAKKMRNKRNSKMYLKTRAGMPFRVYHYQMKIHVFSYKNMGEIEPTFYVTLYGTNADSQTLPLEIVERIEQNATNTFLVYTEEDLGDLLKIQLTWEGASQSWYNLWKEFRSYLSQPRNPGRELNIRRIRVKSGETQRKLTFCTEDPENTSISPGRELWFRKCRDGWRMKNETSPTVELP
Test: Endothelial lipase (EL) enzymatic assay with fluorescent substrate A10070 in DMPG vesicles
Type: biochemical
Conditions: conditioned media from HT-1080 cells overexpressing endogenous EL; 20 min preincubation at 37° C.; read-out: HLE_EL_CRC IC50
Method: Endothelial lipase activity was measured using a fluorescent substrate, A10070, (Invitrogen, CA) doped into an artificial vesicle containing DMPG (Avanti Polar Lipids) as the excipient. Vesicles were prepared by combining 285 uL of 1 mM DMPG in a 1:1 mixture of MeOH and CHCl3 with 15 uL of 1 mM A10070 in a 1:1 mixture of MeOH and CHCl3. The mixture was dried under nitrogen and resuspended in 150 uL of 50 mM HEPES pH 8.0 buffer containing 100 mM NaCl and 0.2 mM EDTA. The sample was allowed to sit at rt for 15 min and then was sonicated 3×4 mins on ice with a Branson Sonicator using duty cycle 1. This preparation provides vesicles with a mole fraction of 0.05 for the FRET substrate.
The enzymatic assay was measured using white, opaque 96-well half area plates. Each well contained 60 uL of assay buffer (50 mM HEPES pH 8.0, 50 mM NaCl and 1 mM CaCl2) and 2 ul of a DMSO solution containing compound of interest. Conditioned media obtained from HT-1080 cells, which were transformed by RAGE technology (Athersys) to overexpress endogenous EL, was added and the reaction was allowed to incubate for 20 min at 37° C. with gentle agitation. The reaction was started by the addition of 20 uL of a 1:4 dilution of vesicles. The final total reaction volume was 100 uL. The reaction rates were measured on a Gemini plate reader with an excitation wavelength of 488 nm and a emission of 530 nm. Readings were taken every 20 seconds for 10 min with agitation between each reading. The slope of the linear portion of the readout was used to calculate the rate of the reaction.

CN1CC(C(=O)NC(CCc2ccc(Cl)c(Cl)c2)C2CC2)=C(O)C1=O (centres unmarked) [Example 233, N-(1-cyclopropyl-3-(3,4-dichlorophenyl)propyl)-4-hydroxy-1-methyl-5-oxo-2,5-dihydro-1H-pyrrole-3-carboxamide]
IC50: 6.28 µM

CCN1CC(C(=O)NC[C@H]2CCc3ccccc3O2)=C(O)C1=O [Example 297, (R)-N-(chroman-2-ylmethyl)-1-ethyl-4-hydroxy-5-oxo-2,5-dihydro-1H-pyrrole-3-carboxamide]
IC50: 6.52 µM

O=C(NCCCc1ccc(Cl)c(Cl)c1)C1=C(O)C(=O)N(CC2CCCCC2)C1 [Example 48, 1-(cyclohexylmethyl)-N-(3-(3,4-dichlorophenyl)propyl)-4-hydroxy-5-oxo-2,5-dihydro-1H-pyrrole-3-carboxamide]
IC50: 0.00573 µM

CCN1CC(C(=O)NCCc2ccc(S(N)(=O)=O)cc2)=C(O)C1=O [Example 181, 1-ethyl-4-hydroxy-5-oxo-N-(4-sulfamoylphenethyl)-2,5-dihydro-1H-pyrrole-3-carboxamide]
IC50: 0.581 µM

C[C@@H](NC(=O)C1=C(O)C(=O)N(CC(F)(F)F)C1)c1ccc2ccccc2c1 [Example 300, (R)-4-hydroxy-N-(1-(naphthalen-2-yl)ethyl)-5-oxo-1-(2,2,2-trifluoroethyl)-2,5-dihydro-1H-pyrrole-3-carboxamide]
IC50: 3.81 µM

CC1C(C(=O)NCCCc2ccc(Cl)c(Cl)c2)=C(O)C(=O)N1CCOc1ccccc1 (centres unmarked) [Example 194, N-(3-(3,4-dichlorophenyl)propyl)-4-hydroxy-2-methyl-5-oxo-1-(2-phenoxyethyl)-2,5-dihydro-1H-pyrrole-3-carboxamide]
IC50: 0.466 µM

CC(CCc1ccc(Cl)c(Cl)c1)NC(=O)C1=C(O)C(=O)N(Cc2c[nH]nn2)C1 (centres unmarked) [Example 272, 1-((1H-1,2,3-triazol-4-yl)methyl)-N-(4-(3,4-dichlorophenyl)butan-2-yl)-4-hydroxy-5-oxo-2,5-dihydro-1H-pyrrole-3-carboxamide]
IC50: 3.44 µM

Cc1nc2cc(C#CCNC(=O)C3=C(O)C(=O)N(C)C3)ccc2s1 [Example 247, 4-hydroxy-1-methyl-N-(3-(2-methylbenzo[d]thiazol-5-yl)prop-2-ynyl)-5-oxo-2,5-dihydro-1H-pyrrole-3-carboxamide]
IC50: 8.38 µM

CC(=O)N(C)CCN1CC(C(=O)NC(C)CCc2ccc(Cl)c(Cl)c2)=C(O)C1=O (centres unmarked) [Example 280, N-(4-(3,4-dichlorophenyl)butan-2-yl)-4-hydroxy-1-(2-(N-methylacetamido)ethyl)-5-oxo-2,5-dihydro-1H-pyrrole-3-carboxamide]
IC50: 7.3 µM

CN1CC(C(=O)NC(CCc2ccc(Cl)c(Cl)c2)C2CC2)=C(O)C1=O (centres unmarked) [Example 232, N-(1-cyclopropyl-3-(3,4-dichlorophenyl)propyl)-4-hydroxy-1-methyl-5-oxo-2,5-dihydro-1H-pyrrole-3-carboxamide]
IC50: 5.46 µM

CC(CCc1ccc(Cl)c(Cl)c1)NC(=O)C1=C(O)C(=O)N(CCNC(=O)c2cc(F)cc(C(F)(F)F)c2)C1 (centres unmarked) [Example 273, N-(4-(3,4-dichlorophenyl)butan-2-yl)-1-(2-(3-fluoro-5-(trifluoromethyl)benzamido)ethyl)-4-hydroxy-5-oxo-2,5-dihydro-1H-pyrrole-3-carboxamide]
IC50: 2.68 µM

C=CC(CCc1ccc(Cl)c(Cl)c1)NC(=O)C1=C(O)C(=O)N(C)C1 (centres unmarked) [Example 236, N-(5-(3,4-dichlorophenyl)pent-1-en-3-yl)-4-hydroxy-1-methyl-5-oxo-2,5-dihydro-1H-pyrrole-3-carboxamide]
IC50: 0.493 µM

CC(CCc1ccc(Cl)c(Cl)c1)NC(=O)C1=C(O)C(=O)N(CCC(=O)O)C1 (centres unmarked) [Example 344, 3-(4-(4-(3,4-dichlorophenyl)butan-2-ylcarbamoyl)-3-hydroxy-2-oxo-2,5-dihydro-1H-pyrrol-1-yl) propanoic acid]
IC50: 0.575 µM

CCOC(=O)[C@H](Cc1ccccc1)N1CC(C(=O)NCCCc2ccc(Cl)c(Cl)c2)=C(O)C1=O [Example 138, (S)-ethyl 2-(4-(3-(3,4-dichlorophenyl)propylcarbamoyl)-3-hydroxy-2-oxo-2,5-dihydro-1H-pyrrol-1-yl)-3-phenylpropanoate]
IC50: 0.526 µM

Cc1ccc(C#CCNC(=O)C2=C(O)C(=O)N(C)C2)cc1C(F)(F)F [Example 248, 4-hydroxy-1-methyl-N-(3-(4-methyl-3-(trifluoromethyl)phenyl)prop-2-ynyl)-5-oxo-2,5-dihydro-1H-pyrrole-3-carboxamide]
IC50: 4.66 µM

CCN1CC(C(=O)NCCCc2ccc(Cl)c(Cl)c2)=C(NCCCc2ccc(Cl)c(Cl)c2)C1=O [Example 179, N-(3-(3,4-dichlorophenyl)propyl)-4-(3-(3,4-dichlorophenyl)-propylamino)-1-ethyl-5-oxo-2,5-dihydro-1H-pyrrole-3-carboxamide]
IC50: 0.546 µM

CCN1CC(C(=O)NCCCN(C)c2ccccc2)=C(O)C1=O [Example 182, 1-ethyl-4-hydroxy-N-(3-(methyl(phenyl)amino)propyl)-5-oxo-2,5-dihydro-1H-pyrrole-3-carboxamide]
IC50: 3.65 µM

CC(CCc1ccc(Cl)c(Cl)c1)NC(=O)C1=C(O)C(=O)N([C@H]2CCc3ccc(C(F)(F)F)cc32)C1 (stereo partly drawn) [Example 347, N-(4-(3,4-dichlorophenyl)butan-2-yl)-4-hydroxy-5-oxo-1-((S)-6-(trifluoromethyl)-2,3-dihydro-1H-inden-1-yl)-2,5-dihydro-1H-pyrrole-3-carboxamide]
IC50: 0.5 µM

O=C(NCCCc1ccc(Cl)c(Cl)c1)C1=C(O)C(=O)N(CCOc2ccccc2)C1 [Example 61, N-(3-(3,4-dichlorophenyl)propyl)-4-hydroxy-5-oxo-1-(2-phenoxyethyl)-2,5-dihydro-1H-pyrrole-3-carboxamide]
IC50: 0.00544 µM

O=C(NCCCOc1ccccc1)C1=C(O)C(=O)N(CC(F)(F)F)C1 [Example 299, 4-hydroxy-5-oxo-N-(3-phenoxypropyl)-1-(2,2,2-trifluoroethyl)-2,5-dihydro-1H-pyrrole-3-carboxamide]
IC50: 2.74 µM

Source: patent publication US8952180B2, “Pyrrolinone carboxamide compounds useful as endothelial lipase inhibitors” (Bristol-Myers Squibb Company, priority 2011, dated 2015)
